# Results: ChEMBL document CHEMBL5291721, “A preclinical secondary pharmacology resource illuminates target-adverse drug reaction associations of marketed drugs” (Nat Commun, 2023)
# Key:
# [1] = biological target: T1, Gamma-aminobutyric acid receptor subunit alpha-1 (Rattus norvegicus, UniProt P62813)
# [2] = biological target: T2, Muscarinic acetylcholine receptor M2 (Homo sapiens, UniProt P08172); type: functional, cell-based
# T2 sequence (P08172 whole entry): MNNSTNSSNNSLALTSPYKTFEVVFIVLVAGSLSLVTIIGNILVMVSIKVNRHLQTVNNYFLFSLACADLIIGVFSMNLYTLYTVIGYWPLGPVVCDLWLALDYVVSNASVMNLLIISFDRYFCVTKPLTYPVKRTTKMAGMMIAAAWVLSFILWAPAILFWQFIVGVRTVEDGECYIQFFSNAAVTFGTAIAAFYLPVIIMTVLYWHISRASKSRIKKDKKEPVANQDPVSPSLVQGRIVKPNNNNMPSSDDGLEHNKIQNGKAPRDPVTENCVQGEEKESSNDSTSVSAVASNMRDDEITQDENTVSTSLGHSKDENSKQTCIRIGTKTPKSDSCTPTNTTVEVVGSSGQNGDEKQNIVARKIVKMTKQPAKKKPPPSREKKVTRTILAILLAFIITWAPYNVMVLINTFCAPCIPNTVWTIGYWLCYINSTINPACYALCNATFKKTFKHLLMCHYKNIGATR
# [3] = biological target: Delta-type opioid receptor (Homo sapiens, UniProt P41143)
# Glucocorticoid receptor = biological target: T3, Glucocorticoid receptor (Homo sapiens, UniProt P04150)
# T3 sequence (P04150 whole entry): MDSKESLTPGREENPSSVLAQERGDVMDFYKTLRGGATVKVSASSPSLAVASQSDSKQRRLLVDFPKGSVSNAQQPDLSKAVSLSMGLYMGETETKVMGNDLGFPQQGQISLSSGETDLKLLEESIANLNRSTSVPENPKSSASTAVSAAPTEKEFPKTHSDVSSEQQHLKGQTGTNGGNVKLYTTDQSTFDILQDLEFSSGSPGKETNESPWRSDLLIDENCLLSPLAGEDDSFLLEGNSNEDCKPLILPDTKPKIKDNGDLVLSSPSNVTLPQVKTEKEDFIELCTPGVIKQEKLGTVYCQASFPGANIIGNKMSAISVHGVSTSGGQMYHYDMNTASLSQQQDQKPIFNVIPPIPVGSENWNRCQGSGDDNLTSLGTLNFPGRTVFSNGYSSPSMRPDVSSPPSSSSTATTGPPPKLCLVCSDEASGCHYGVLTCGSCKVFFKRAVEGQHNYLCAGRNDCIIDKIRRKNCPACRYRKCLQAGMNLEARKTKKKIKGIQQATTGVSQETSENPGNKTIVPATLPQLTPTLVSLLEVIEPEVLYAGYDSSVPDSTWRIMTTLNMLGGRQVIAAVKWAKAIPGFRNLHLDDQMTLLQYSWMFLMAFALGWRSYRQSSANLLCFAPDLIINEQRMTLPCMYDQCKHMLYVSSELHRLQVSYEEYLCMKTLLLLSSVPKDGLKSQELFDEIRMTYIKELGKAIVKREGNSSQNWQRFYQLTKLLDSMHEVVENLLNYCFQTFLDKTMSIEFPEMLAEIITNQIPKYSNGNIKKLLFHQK
# [4] = biological target: Sodium-dependent dopamine transporter (Homo sapiens, UniProt Q01959)
# [5] = biological target: Sodium-dependent serotonin transporter (Homo sapiens, UniProt P31645)
# Adenosine receptor A3 = biological target: T4, Adenosine receptor A3 (Homo sapiens, UniProt P0DMS8)
# T4 sequence (P0DMS8 whole entry): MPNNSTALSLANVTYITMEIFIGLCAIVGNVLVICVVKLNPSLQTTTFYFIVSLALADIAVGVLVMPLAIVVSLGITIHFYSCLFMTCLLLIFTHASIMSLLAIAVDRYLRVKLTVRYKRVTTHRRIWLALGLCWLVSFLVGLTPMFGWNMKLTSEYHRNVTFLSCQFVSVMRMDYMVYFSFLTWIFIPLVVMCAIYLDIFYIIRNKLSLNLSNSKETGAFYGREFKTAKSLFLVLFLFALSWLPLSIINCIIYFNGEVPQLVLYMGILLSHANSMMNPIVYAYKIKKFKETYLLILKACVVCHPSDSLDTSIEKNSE
# [6] = biological target: T5, Neuropeptide Y receptor type 1 (Homo sapiens, UniProt P25929)
# T5 sequence (P25929 whole entry): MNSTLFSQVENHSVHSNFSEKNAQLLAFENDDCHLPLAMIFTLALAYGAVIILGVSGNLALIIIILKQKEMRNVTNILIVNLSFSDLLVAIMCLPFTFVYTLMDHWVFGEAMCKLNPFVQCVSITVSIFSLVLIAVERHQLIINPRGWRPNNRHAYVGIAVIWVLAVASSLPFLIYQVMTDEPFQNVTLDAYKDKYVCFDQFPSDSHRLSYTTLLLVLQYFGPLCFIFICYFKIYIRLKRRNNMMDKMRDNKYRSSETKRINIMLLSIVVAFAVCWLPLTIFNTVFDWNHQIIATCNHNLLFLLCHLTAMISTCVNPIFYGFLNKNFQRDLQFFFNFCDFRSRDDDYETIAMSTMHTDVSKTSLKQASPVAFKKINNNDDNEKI
# Thromboxane A2 receptor = biological target: T6, Thromboxane A2 receptor (Homo sapiens, UniProt P21731)
# T6 sequence (P21731 whole entry): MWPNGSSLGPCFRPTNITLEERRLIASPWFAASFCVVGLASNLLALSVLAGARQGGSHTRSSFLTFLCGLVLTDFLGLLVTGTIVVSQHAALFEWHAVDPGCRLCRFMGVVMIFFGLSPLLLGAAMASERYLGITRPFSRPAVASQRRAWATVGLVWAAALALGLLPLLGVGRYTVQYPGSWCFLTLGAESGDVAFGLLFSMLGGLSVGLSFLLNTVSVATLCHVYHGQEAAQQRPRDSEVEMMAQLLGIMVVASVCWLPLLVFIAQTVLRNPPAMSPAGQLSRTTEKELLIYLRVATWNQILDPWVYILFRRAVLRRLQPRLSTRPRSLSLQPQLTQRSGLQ
# [7] = biological target: T2, Muscarinic acetylcholine receptor M2; type: functional, cell-based; remark: listed apart in the source
# [8] = biological target: 3',5'-cyclic-AMP phosphodiesterase 4D (Homo sapiens, UniProt Q08499); type: functional
# [9] = biological target: Muscarinic acetylcholine receptor M3 (Homo sapiens, UniProt P20309)
# [10] = biological target: T1, Gamma-aminobutyric acid receptor subunit alpha-1; type: functional
# Cannabinoid receptor 1 = Cannabinoid receptor 1 (Homo sapiens, UniProt P21554); type: functional, cell-based
# Further: assay procedure not described here.
# Chain of Delta-type opioid receptor (P41143 whole entry): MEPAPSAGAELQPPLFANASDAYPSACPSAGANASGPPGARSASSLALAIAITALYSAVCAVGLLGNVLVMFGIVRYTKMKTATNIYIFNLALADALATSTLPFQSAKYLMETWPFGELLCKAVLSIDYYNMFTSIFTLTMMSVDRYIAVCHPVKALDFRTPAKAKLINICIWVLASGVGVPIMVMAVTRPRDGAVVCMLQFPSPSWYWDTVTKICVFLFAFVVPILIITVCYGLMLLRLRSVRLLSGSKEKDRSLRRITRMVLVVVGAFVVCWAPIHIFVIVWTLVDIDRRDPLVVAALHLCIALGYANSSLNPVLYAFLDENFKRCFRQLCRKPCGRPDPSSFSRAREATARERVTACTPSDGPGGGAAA
# Chain of Cannabinoid receptor 1 (P21554 whole entry): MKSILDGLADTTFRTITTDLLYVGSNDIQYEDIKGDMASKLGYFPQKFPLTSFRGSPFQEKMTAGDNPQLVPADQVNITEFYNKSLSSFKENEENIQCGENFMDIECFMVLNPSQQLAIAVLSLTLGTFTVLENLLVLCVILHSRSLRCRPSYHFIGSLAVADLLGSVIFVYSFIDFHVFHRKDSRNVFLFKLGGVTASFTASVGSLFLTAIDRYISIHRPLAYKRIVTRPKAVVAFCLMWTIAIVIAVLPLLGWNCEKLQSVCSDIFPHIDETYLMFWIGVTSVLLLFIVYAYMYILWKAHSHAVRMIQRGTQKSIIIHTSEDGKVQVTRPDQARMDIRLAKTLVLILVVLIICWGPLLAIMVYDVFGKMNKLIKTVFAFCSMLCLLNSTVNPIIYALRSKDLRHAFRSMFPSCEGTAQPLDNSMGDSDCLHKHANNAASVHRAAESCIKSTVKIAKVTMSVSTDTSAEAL
# Chain of 3',5'-cyclic-AMP phosphodiesterase 4D (Q08499 whole entry): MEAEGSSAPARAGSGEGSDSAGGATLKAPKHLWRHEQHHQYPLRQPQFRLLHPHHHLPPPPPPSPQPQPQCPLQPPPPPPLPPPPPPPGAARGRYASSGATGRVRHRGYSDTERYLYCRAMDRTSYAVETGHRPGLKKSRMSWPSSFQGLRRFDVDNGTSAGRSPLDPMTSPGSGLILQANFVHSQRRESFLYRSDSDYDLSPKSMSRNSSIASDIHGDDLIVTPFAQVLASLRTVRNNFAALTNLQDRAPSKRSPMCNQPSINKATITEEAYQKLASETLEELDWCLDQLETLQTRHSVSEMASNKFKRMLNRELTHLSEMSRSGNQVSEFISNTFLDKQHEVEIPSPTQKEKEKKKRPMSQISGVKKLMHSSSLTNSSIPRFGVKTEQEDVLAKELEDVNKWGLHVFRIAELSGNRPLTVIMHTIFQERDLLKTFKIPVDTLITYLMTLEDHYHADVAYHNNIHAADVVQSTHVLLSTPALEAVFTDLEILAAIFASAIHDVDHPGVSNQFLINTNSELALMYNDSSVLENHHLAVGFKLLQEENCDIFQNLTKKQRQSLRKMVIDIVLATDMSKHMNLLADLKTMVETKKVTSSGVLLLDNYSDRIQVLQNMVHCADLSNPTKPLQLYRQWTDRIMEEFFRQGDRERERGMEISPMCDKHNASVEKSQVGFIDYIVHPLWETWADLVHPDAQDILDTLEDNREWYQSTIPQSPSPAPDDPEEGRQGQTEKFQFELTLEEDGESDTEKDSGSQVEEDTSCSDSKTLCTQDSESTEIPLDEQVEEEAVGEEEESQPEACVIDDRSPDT
# Chain of Sodium-dependent serotonin transporter (P31645 whole entry): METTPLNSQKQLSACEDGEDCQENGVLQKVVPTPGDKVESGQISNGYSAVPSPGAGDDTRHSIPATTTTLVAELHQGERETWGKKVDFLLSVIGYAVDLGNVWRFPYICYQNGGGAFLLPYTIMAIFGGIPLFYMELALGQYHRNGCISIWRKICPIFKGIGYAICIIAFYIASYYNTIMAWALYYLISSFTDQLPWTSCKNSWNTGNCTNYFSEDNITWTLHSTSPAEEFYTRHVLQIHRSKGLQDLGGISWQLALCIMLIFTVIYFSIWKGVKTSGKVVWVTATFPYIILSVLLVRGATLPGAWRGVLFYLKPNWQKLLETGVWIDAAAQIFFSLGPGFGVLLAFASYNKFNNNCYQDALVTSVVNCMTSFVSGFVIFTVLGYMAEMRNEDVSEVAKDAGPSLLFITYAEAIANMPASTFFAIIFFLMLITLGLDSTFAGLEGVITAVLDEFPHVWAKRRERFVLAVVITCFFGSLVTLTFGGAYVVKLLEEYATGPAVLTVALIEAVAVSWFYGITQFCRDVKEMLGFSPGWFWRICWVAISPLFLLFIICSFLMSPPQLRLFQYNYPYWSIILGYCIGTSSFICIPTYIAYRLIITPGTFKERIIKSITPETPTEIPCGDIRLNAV
# Chain of Muscarinic acetylcholine receptor M3 (P20309 whole entry): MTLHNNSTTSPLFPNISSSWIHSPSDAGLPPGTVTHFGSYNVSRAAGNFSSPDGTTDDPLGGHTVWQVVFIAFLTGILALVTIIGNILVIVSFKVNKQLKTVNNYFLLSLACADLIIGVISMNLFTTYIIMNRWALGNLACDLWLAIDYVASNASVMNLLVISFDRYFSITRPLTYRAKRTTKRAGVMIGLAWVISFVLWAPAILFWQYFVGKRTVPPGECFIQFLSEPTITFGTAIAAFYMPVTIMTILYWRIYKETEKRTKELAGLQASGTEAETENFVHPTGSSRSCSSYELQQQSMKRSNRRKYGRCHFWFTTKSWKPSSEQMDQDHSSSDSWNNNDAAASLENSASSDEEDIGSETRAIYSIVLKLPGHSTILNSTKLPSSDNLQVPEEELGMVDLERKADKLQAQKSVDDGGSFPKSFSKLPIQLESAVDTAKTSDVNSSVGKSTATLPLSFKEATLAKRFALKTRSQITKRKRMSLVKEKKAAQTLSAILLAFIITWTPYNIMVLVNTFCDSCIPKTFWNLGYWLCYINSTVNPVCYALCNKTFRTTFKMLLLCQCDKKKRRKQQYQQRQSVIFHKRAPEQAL
# T1 sequence (P62813 whole entry): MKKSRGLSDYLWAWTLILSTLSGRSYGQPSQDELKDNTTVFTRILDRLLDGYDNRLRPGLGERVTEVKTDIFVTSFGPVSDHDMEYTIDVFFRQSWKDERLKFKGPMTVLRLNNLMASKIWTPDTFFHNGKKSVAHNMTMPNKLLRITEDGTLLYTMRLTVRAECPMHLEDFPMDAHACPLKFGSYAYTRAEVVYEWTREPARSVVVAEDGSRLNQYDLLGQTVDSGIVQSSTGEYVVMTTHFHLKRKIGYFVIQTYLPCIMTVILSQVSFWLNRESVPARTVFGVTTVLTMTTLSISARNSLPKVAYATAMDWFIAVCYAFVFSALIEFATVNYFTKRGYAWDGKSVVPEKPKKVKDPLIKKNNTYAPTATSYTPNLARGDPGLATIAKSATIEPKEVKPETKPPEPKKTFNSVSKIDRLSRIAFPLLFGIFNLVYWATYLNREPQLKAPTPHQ
# Chain of Sodium-dependent dopamine transporter (Q01959 whole entry): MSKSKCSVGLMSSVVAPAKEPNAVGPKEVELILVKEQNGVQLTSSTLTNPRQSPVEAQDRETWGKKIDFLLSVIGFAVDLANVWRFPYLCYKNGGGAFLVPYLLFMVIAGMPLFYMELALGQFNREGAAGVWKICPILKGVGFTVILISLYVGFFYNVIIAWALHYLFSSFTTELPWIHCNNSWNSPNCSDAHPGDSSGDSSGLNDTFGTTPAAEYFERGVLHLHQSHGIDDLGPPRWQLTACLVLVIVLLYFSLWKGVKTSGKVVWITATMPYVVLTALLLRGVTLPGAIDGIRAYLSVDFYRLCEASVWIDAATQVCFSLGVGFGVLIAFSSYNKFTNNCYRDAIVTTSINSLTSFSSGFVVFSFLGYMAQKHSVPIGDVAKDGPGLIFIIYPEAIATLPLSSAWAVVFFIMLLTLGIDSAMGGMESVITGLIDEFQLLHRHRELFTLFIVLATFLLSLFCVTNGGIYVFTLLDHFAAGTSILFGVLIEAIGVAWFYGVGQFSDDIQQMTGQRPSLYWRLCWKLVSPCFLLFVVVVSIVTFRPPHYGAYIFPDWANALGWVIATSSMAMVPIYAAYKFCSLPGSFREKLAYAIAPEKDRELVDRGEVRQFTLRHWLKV
Compound,AC50 [1],AC50 [2],AC50 [3],AC50 (Glucocorticoid receptor),AC50 [4],AC50 [5],AC50 (Adenosine receptor A3),AC50 [6],AC50 (Thromboxane A2 receptor),AC50 [7],AC50 [8],AC50 [9],AC50 [10],AC50 (Cannabinoid receptor 1)
O=C(CCCCC(=O)Nc1c(I)cc(I)c(C(=O)O)c1I)Nc1c(I)cc(I)c(C(=O)O)c1I [IODIPAMIDE],> 10 µM,> 10 µM,> 30 µM,> 10 µM,> 10 µM,> 10 µM,> 10 µM,> 10 µM,> 10 µM,> 10 µM,> 30 µM,> 30 µM,> 10 µM,
CC(C)[N+](C)(CCC(C(N)=O)(c1ccccc1)c1ccccc1)C(C)C [ISOPROPAMIDE],> 10 µM,> 10 µM,> 30 µM,> 10 µM,> 10 µM,> 10 µM,> 10 µM,> 10 µM,> 10 µM,0.01 µM,> 30 µM,0.0056 µM,> 10 µM,
Cc1cc(-c2ccccc2)nnc1NCCN1CCOCC1 [MINAPRINE],> 10 µM,> 10 µM,> 30 µM,,> 10 µM,> 10 µM,> 30 µM,> 30 µM,> 30 µM,> 10 µM,> 30 µM,> 10 µM,> 10 µM,> 30 µM
CCCCCCC(C)(C)c1cc(O)c2c(c1)OC(C)(C)C1CCC(=O)CC21 (stereo not given) [NABILONE],> 30 µM,> 30 µM,> 30 µM,> 30 µM,16 µM,> 30 µM,9.1 µM,> 30 µM,,> 30 µM,> 30 µM,> 30 µM,> 30 µM,
C1COC(NC(C2CC2)C2CC2)=N1 [RILMENIDINE],> 10 µM,> 10 µM,> 30 µM,,> 30 µM,> 30 µM,> 30 µM,> 30 µM,> 30 µM,> 10 µM,> 30 µM,> 30 µM,> 10 µM,> 30 µM
O=C1NCCN1CCN1CCC(c2cn(-c3ccc(F)cc3)c3ccc(Cl)cc23)CC1 [SERTINDOLE],> 30 µM,> 30 µM,> 30 µM,,1.7 µM,3.4 µM,16 µM,> 30 µM,> 30 µM,> 10 µM,20 µM,22 µM,> 30 µM,20 µM
CN1CCN(C(=O)OC2c3nccnc3C(=O)N2c2ccc(Cl)cn2)CC1 (stereo not given) [ZOPICLONE],> 10 µM,> 10 µM,> 10 µM,,> 30 µM,> 30 µM,18.3 µM,> 30 µM,> 30 µM,> 10 µM,> 30 µM,> 30 µM,0.093 µM,> 30 µM
